Publication PMC2694832, “Pharmacokinetics, tissue distribution and mass balance of radiolabeled dihydroartemisinin in male rats” (Malaria Journal, 2009)

Key:
[1] = Pharmacokinetic study of [^14C] DHA and unchanged DHA, single i.v. dose; type: in vivo, rats; details: for fourth peak concentration of radioactivity: 6 hours; for first peak concentration of radioactivity: at one minute
Method: Traditional PK studies involve intermittent blood sampling and subsequent determination of drug concentrations in whole blood and plasma. The Culex automated blood sampler provides a way for blood withdrawal at preprogrammed intervals, which is more accurate and less labor intensive. Six rats in the PK group were implanted with a jugular vein catheter under an isofluorane anesthaesia. After the surgery, rats were allowed to recover for 96 hours with free access to food and water. The rats were dosed single i.v. at 3 mg/ml/kg with [^14C] DHA (20 μCi/kg), which was prepared as a 25% cremophore/0.9% saline solution, through the tail vein. […] PK evaluation of [^14C] DHA in plasma and whole blood, as well as unchanged DHA in plasma was conducted in individual rats.
Total radioactivity in the collected tissue samples were quantified in duplicate. Weighed tissue aliquots (~0.2 g) were digested overnight in 2 ml of Solvable® tissue solubilizer (Perkin-Elmer Life and Analytical Sciences, Boston, MA) at 50°C. Coloured samples were decolourized by adding a maximum of 0.2 ml of 30% H2O2 for 30–60 minutes. Scintillation cocktail (Hyonic Fluor; Perkin-Elmer Boston. Massachusetts, USA) was then added and radioactivity determined in a Perkin-Elmer Tri-Carb 3100 TR scintillation spectrophotometer (Packard Instrument Co., Downers Grove, Illinois, USA). Faeces and intestinal contents were thoroughly homogenized before taking aliquots. Plasma was also analysed using the HPLC-ECD system to measure the concentration of unchanged DHA, as described by Li et al.
The analysis of cold DHA in plasma was performed according to a previously described HPLC method with the following modifications: for simultaneous determination of artemisinin and DHA (artemisinin as an internal standard), the Agilent Eclipse XDB-C18 column 5 μm (4.6 × 150 mm) was used with an isocratic mobile phase consisting of 40% acetonitrile: 60% ESA Acid Metabolite A (70–4835) in the reductive mode (-400 mV) for the quantification of DHA. Validation and reproducibility were evaluated and a lower limit of quantitation (LLQ) of 2.31 ng/ml for DHA was determined. The inter- and intra-day coefficient of variation for accuracy and precision were all within ± 10%.
For pharmacokinetics, the concentration-time data of [^14C] DHA in plasma and whole blood collected during the 192 hour treatment period was fitted to a three-compartment open model using a nonlinear, extended least-square fitting procedure (WinNonlin 5.2, Pharsight Corporation, Cary, NC) using weighted (1/concentration) nonlinear regression. The area under the curve (AUC) was determined by the linear trapezoidal rule with extrapolation to infinity based on the concentration of the last time point divided by the terminal rate constant. Extrapolations to time zero were done using zero concentration for intravenous dosing and using C0 values determined from the three-compartment model equation at time zero by i.v. route. Mean clearance rate (CL) was determined by dividing the dose by the AUCinf for i.v. injection. Mean residence time (MRT) was determined by dividing the area under the first moment curve (AUMC) by the AUC. The volume of distribution at steady state (Vss) was calculated as the product of CL and MRT. The concentration-time data of unchanged DHA was fitted to a two-compartment open model. Statistical analysis was conducted with Microsoft Excel using a Student's t-test for dependent samples to compare means of paired and unpaired samples between two groups.

rat plasma proteins = assay: Protein binding of [^14C] DHA, equilibrium dialysis, rat plasma; type: in vitro ADME; details: undiluted rat plasma, 0.15 to 57800 ng/ml, 37°C, five hours
Method: Human blood samples (five men and five women) were freshly obtained from subject volunteers at the Department of Clinical Trials, WRAIR. Rat samples were freshly collected from five male and five female rats. Equilibrium dialysis was performed using Teflon dialysis chambers and Diachema standard membranes as described by Li and Hümpel. The GD-4/90 Equilibrium Dialyzer (MM Developments, Ottawa) contained 20 micro-dialysis cells (2.0 ml/chamber). The molecular weight cutoff for dialysis membranes was 5000 D. Equilibrium was reached after four hours, when cells were rotated at 16 rpm and 37°C. Drugs were dissolved in plasma samples with various concentrations (0.15 – 57800 ng/ml) and all experiments were carried out for five hours.

[2] = blood radioactivity, three-compartment, rats single i.v. 3 mg/20 μCi/kg
[3] = blood radioactivity, rats single i.v. 3 mg/20 μCi/kg
[4] = plasma radioactivity, three-compartment, rats single i.v. 3 mg/20 μCi/kg
[5] = plasma radioactivity, rats single i.v. 3 mg/20 μCi/kg
[6] = plasma radioactivity, rats single i.v. 3 mg/20 μCi/kg, listed as 14C-Dihydroartemisinin
[7] = plasma, rats i.v. 3 mg/20 μCi/kg

## C[C@@H]1CC[C@H]2[C@@H]([14CH3])C(O)O[C@@H]3O[C@@]4(C)CC[C@@H]1[C@]32OO4 (stereo partly shown) [[^14C] DHA, [16-^14C] DHA]
[1]; [2]
  AUCinf.: 52690 ± 4971 ng·h/mL
  CL: 0.7263 ± 0.5117 mL/min/kg
  Cmax: 3105 ± 430 ng/mL
  MRT: 148.57 ± 90.24 h
  Vss: 10.792 ± 3.771 L/kg
  t1/2 – alpha: 0.18 ± 0.02 h
  t1/2 – beta: 19.68 ± 3.88 h
  t1/2 – gamma (terminal): 122.13 ± 8.73 h
[1]; [3]
  Cmax at first peak: 3105 ± 430 ng/mL
  Cmax at fourth peak: 833 ± 99 ng/mL
  Cmax at second peak: 1557 ± 955 ng/mL
  Cmax at third peak: 978 ± 164 ng/mL
  Tmax: 1.2 min
  time of first peak: 0.02 h
  time of fourth peak: 6 h
  time of second peak: 0.94 h
  time of third peak: 2.00 h
[1]; blood radioactivity, rats single i.v. 3 mg/20 μCi/kg, listed as 14C-Dihydroartemisinin
  time of fourth peak: 6.00 h
[1]; blood, rats i.v. 3 mg/20 μCi/kg
  fourth peak concentration of radioactivity: 833 ng equivalents/ml
[1]; blood, at two hours, rats i.v. 3 mg/20 μCi/kg
  third peak concentration of radioactivity: 978 ng equivalents/ml
[1]; [4]
  AUCinf.: 21014 ± 2718 ng·h/mL
  CL: 2.4105 ± 0.3028 mL/min/kg
  MRT: 57.00 ± 2.84 h
  Vss: 8.216 ± 0.828 L/kg
  t1/2 – alpha: 0.21 ± 0.05 h
  t1/2 – gamma (terminal): 75.57 ± 7.34 h
[1]; plasma radioactivity, rats i.v. 3 mg/20 μCi/kg
  time of second peak: 0.183 h
[1]; [5]
  Cmax at fourth peak: 584 ± 65.5 ng/mL
  Cmax at second peak: 2373 ± 195 ng/mL
  Cmax at third peak: 863 ± 537 ng/mL
  Tmax: 1.2 min
  time of first peak: 0.02 h
  time of fourth peak: 6 h
  time of second peak: 0.19 h
  time of third peak: 1.7 h
[1]; [6]
  time of fourth peak: 6.00 h
  time of third peak: 1.70 h
[1]; [7]
  fourth peak concentration of radioactivity: 584 ng equivalents/ml
  first peak concentration of radioactivity: 3,446 ng equivalents/g
  second peak concentration of radioactivity: 2,373 ng equivalents/ml
  third peak concentration of radioactivity: 863 ng equivalents/ml
[1]; rats i.v.
  total radioactivity in the plasma fraction relative to blood total: less than 25%
[1]; rats, plasma, urine and faeces, single i.v. 3 mg/20 μCi/kg
  duration of total radioactivity (long-lasting metabolites): > 192 h
[1]; whole blood radioactivity, rats i.v. 3 mg/20 μCi/kg
  time of second peak: 0.933 h
[1]; whole blood, rats i.v. 3 mg/20 μCi/kg
  first peak concentration of radioactivity: 3,105 ng equivalents/g
Rat plasma proteins
  plasma protein binding percentage: 76–82%
